From patent publication US8466118B2, “Modulation of blood brain barrier protein expression” (Saint Louis University, priority 2007, dated 2013)
Oligonucleotides are written 5' to 3', each unit as a sugar letter and its base; * is a phosphorothioate linkage, no mark a phosphodiester; rarer units and linkages stand in square brackets, end groups in braces. Plain capitals give the bases only. d = 2'-deoxy (DNA)

Tests used:
[1] = biological target: T1, beta-F1 ATPase (Mus musculus, UniProt P56480); assay: Brain perfusion uptake of I-PACAP27/I-PACAP38 after iv antisense; type: in vivo; conditions: single tail vein injection 24 h before study, 10 μg/mouse
T1 construct: from tissue; host or cells: brain / blood-brain barrier of living mice (CD-1; SAMP8 in the T-maze study)
Description: To test the effectiveness of PTS-6 antisenses after their intravenous administration, two month old male CD-1 mice kept on a 12/12 hour light/dark cycle with food and water freely available were given an injection by tail vein of 0.9% saline with or without 10 μg/mouse of each of the three antisenses. To determine the specificity of the PTS-6 antisense on I-PACAP27 efflux, three other antisenses were also injected iv. These were:
After 24 h, the mice were anesthetized with urethane and both jugular veins exposed. The thorax was opened, the descending thoracic aorta clamped, both jugular veins severed, and lactated Ringer's solution containing I-PACAP27 (250,000 cpm/ml) perfused through the left ventricle of the heart at the rate of 2 ml/min. ^131I-PACAP38 (hereafter referred to as I-PACAP38) was perfused in some mice treated with PTS-6 antisense. After 5 min, the perfusion was stopped and 20 ml of lactated Ringer's solution was infused through the left ventricle of the heart to wash out the vascular space of the brain. The level of radioactivity was determined in the brain and in an aliquot of the perfusion fluid and results expressed as the brain/perfusion ratio in units of μl/g.

[2] = biological target: T2, LRP-1 (Mus musculus, UniProt Q91ZX7); assay: Brain efflux of I-Aβ42 after acute icv antisense; type: in vivo; conditions: 24 h after icv antisense, compared to saline
T2 construct: from tissue; host or cells: brain of living mice (iv, icv or chronic icv antisense)
From the text: In vivo brain-to-blood efflux rate of icv antisense: A standard method was used to quantify brain-to-blood efflux rates (Banks et al., Neuroscience 121, 487-492, 2003; Jaeger et al., Proc Natl Acad Sci USA 102, 12495-12500, 2005). First, mice were anesthetized with an i.p. injection of 40% urethane. After the scalp was removed, a hole was made through the cranium (1.0 mm lateral and 0.5 mm posterior to bregma) with a 26-gauge needle. All of the needle except 2.5 to 3.0 mm of the tip was covered by PE-10 tubing. […] Injections were made into the lateral ventricle (icv) with a 1.0 μl Hamilton syringe.
For studies in which the -Slope is reported, this value was determined from a graph created with two time points (0 and 10 min) as described above. After the log of the mean % of the injected dose of radioactivity (amount detected/amount injected*100=% Inj Dose) in each brain was plotted against time (min), linear regression was used to create a line between the multiple values at these two points.
In some experiments, mice received two icv injections (antisense cocktail or saline icv and, at t=30 min or t=24 h, icv I-Aβ42). In these cases, the dose of antisense given was 200 ng/μl LR-BSA and the dose of I-Aβ42 given was 5×10^3 cpm/μl LR-BSA.
In the specificity experiment, mice received two icv injections. […]

[3] = system: P-glycoprotein; conditions: intracranial introduction, rat; cited from earlier work
[4] = biological target: T2, LRP-1; assay: Abluminal-to-luminal transport of I-Aβ42 in primary BMEC monolayers; type: cell-based; conditions: 1 μg/mL unlabeled Aβ42 in abluminal chamber
Description: Isolation of mouse brain microvascular endothelial cells (BMECs): BMECs were isolated using a modified method of Szabó et al. (Neurobiology 5, 1-16 (1997). In brief, cerebral cortices from 8-week-old CD-1 mice were isolated, cleaned of meninges, and minced. The homogenate was digested with collagenase type II (1 mg/mL) and DNase I (30 U/mL) in Dulbecco's Modified Eagle Media (DMEM) [containing 100 units/mL penicillin, 100 μg/mL streptomycin, 50 μg/mL gentamicin and 2 mM GlutaMAX-I (Invitrogen, Carlsbad, Calif.)] at 37° C. for 40 min. After digestion, 20% bovine serum albumin (BSA) dissolved in DMEM was added. The sample was then centrifuged at 1,000×g for 20 min, the supernatant containing the neurons and glial cells was removed, and the pellet containing the microvessels further digested at 37° C. for 30 min with collagenase/dispase at a concentration of 1 mg/mL (Roche, Mannheim, Germany) and DNase I (30 U/mL dissolved in DMEM). After the second enzyme digestion, we then layered the pellet on a 33% Percoll (Amersham Biosciences, Piscataway, N.J.) gradient and centrifuged at 1,000×g for 10 min to separate the microvessels. To create the Percoll gradient, 33% Percoll solution (8 mL Percoll, 14.4 mL phosphate buffered saline; PBS, 0.8 mL plasma derived serum; PDS, and 0.8 mL 10×PBS) was centrifuged at 20,300×g for 1 h, prior to this step. […]

[5] = system: LRP-1; assay: Immunohistochemistry of LRP-1 in isolated mouse brain microvessels (MBMs); type: cell-based; conditions: 10 μg/mL, 24 h, buffer = 100%
From the text: Isolation of mouse brain microvessels (MBMs): Mouse brain microvessels (MBMs) were isolated by a modification of a method of Gerhart et al (Brain Res Bull 21, 785-793, 1998). All glassware was pre-coated with phosphate buffered saline (PBS) supplemented with 1% BSA (1% BSA/PBS). This was done to minimize adhesion and to maximize recovery of microvessels. Briefly, ten to twelve cerebral cortices from adult male CD-1 mice were collected and the meninges removed. They were homogenized on ice in 5 mL of cold stock buffer (25 mM HEPES, 1% dextran and 1 envelope of Minimum Essential Medium (Invitrogen), pH 7.4). The homogenate was then filtered through a series of nylon mesh membranes (300 μm, then twice through 100 μm; Spectrum, Houston, Tex.), mixed with an equal volume of 40% dextran in stock buffer, and centrifuged at 3,000×g for 30 min at 4° C. […]
Immunohistochemistry of LRP-1 in isolated MBMs: Isolated MBMs were treated with either incubation buffer, random antisense, or antisense cocktail (10 μg/mL) in incubation buffer for 24 h. […] Fluorescence was detected with Zeiss Axiovert 40 CFL fluorescent microscope (Carl Zeiss, Inc., Thornwood, N.Y.). Images were obtained from 5-6 microvessels in each group and mean fluorescent intensity was quantified using Image J analysis software (National Institute of Health, USA).

[6] = biological target: T2, LRP-1; assay: Recognition of a novel object after chronic icv infusion; type: in vivo; conditions: 2 wk icv infusion 100 ng/h
Description: Recognition of a novel object: This method has been described previously(Jaeger et al., 2002). Briefly, recognition memory for a novel object was assessed in cocktail and random antisense treated animals (100 ng/h two week infusion). Prior to testing, mice were habituated for three consecutive days to the testing apparatus (a 58×66×11 cm white, plastic box). During habituation, each mouse was allowed to freely explore the testing apparatus for 5 min. On the first day of training, mice were placed in the testing apparatus for 5 min and allowed to explore a pair of identical objects (Objects A and B; both were 7×6.3×5.1 cm). On the second day of training, one of the original objects was replaced with a new, or novel, object (Object C; 8.2×3.8×7.4 cm). Mice were placed in the testing apparatus for 5 min and the amount of time each mouse spent sniffing or touching the novel object was recorded by an observer. Results from this study were expressed as the percent of time spent investigating the novel object.

T2 sequence (Q91ZX7 20-4545): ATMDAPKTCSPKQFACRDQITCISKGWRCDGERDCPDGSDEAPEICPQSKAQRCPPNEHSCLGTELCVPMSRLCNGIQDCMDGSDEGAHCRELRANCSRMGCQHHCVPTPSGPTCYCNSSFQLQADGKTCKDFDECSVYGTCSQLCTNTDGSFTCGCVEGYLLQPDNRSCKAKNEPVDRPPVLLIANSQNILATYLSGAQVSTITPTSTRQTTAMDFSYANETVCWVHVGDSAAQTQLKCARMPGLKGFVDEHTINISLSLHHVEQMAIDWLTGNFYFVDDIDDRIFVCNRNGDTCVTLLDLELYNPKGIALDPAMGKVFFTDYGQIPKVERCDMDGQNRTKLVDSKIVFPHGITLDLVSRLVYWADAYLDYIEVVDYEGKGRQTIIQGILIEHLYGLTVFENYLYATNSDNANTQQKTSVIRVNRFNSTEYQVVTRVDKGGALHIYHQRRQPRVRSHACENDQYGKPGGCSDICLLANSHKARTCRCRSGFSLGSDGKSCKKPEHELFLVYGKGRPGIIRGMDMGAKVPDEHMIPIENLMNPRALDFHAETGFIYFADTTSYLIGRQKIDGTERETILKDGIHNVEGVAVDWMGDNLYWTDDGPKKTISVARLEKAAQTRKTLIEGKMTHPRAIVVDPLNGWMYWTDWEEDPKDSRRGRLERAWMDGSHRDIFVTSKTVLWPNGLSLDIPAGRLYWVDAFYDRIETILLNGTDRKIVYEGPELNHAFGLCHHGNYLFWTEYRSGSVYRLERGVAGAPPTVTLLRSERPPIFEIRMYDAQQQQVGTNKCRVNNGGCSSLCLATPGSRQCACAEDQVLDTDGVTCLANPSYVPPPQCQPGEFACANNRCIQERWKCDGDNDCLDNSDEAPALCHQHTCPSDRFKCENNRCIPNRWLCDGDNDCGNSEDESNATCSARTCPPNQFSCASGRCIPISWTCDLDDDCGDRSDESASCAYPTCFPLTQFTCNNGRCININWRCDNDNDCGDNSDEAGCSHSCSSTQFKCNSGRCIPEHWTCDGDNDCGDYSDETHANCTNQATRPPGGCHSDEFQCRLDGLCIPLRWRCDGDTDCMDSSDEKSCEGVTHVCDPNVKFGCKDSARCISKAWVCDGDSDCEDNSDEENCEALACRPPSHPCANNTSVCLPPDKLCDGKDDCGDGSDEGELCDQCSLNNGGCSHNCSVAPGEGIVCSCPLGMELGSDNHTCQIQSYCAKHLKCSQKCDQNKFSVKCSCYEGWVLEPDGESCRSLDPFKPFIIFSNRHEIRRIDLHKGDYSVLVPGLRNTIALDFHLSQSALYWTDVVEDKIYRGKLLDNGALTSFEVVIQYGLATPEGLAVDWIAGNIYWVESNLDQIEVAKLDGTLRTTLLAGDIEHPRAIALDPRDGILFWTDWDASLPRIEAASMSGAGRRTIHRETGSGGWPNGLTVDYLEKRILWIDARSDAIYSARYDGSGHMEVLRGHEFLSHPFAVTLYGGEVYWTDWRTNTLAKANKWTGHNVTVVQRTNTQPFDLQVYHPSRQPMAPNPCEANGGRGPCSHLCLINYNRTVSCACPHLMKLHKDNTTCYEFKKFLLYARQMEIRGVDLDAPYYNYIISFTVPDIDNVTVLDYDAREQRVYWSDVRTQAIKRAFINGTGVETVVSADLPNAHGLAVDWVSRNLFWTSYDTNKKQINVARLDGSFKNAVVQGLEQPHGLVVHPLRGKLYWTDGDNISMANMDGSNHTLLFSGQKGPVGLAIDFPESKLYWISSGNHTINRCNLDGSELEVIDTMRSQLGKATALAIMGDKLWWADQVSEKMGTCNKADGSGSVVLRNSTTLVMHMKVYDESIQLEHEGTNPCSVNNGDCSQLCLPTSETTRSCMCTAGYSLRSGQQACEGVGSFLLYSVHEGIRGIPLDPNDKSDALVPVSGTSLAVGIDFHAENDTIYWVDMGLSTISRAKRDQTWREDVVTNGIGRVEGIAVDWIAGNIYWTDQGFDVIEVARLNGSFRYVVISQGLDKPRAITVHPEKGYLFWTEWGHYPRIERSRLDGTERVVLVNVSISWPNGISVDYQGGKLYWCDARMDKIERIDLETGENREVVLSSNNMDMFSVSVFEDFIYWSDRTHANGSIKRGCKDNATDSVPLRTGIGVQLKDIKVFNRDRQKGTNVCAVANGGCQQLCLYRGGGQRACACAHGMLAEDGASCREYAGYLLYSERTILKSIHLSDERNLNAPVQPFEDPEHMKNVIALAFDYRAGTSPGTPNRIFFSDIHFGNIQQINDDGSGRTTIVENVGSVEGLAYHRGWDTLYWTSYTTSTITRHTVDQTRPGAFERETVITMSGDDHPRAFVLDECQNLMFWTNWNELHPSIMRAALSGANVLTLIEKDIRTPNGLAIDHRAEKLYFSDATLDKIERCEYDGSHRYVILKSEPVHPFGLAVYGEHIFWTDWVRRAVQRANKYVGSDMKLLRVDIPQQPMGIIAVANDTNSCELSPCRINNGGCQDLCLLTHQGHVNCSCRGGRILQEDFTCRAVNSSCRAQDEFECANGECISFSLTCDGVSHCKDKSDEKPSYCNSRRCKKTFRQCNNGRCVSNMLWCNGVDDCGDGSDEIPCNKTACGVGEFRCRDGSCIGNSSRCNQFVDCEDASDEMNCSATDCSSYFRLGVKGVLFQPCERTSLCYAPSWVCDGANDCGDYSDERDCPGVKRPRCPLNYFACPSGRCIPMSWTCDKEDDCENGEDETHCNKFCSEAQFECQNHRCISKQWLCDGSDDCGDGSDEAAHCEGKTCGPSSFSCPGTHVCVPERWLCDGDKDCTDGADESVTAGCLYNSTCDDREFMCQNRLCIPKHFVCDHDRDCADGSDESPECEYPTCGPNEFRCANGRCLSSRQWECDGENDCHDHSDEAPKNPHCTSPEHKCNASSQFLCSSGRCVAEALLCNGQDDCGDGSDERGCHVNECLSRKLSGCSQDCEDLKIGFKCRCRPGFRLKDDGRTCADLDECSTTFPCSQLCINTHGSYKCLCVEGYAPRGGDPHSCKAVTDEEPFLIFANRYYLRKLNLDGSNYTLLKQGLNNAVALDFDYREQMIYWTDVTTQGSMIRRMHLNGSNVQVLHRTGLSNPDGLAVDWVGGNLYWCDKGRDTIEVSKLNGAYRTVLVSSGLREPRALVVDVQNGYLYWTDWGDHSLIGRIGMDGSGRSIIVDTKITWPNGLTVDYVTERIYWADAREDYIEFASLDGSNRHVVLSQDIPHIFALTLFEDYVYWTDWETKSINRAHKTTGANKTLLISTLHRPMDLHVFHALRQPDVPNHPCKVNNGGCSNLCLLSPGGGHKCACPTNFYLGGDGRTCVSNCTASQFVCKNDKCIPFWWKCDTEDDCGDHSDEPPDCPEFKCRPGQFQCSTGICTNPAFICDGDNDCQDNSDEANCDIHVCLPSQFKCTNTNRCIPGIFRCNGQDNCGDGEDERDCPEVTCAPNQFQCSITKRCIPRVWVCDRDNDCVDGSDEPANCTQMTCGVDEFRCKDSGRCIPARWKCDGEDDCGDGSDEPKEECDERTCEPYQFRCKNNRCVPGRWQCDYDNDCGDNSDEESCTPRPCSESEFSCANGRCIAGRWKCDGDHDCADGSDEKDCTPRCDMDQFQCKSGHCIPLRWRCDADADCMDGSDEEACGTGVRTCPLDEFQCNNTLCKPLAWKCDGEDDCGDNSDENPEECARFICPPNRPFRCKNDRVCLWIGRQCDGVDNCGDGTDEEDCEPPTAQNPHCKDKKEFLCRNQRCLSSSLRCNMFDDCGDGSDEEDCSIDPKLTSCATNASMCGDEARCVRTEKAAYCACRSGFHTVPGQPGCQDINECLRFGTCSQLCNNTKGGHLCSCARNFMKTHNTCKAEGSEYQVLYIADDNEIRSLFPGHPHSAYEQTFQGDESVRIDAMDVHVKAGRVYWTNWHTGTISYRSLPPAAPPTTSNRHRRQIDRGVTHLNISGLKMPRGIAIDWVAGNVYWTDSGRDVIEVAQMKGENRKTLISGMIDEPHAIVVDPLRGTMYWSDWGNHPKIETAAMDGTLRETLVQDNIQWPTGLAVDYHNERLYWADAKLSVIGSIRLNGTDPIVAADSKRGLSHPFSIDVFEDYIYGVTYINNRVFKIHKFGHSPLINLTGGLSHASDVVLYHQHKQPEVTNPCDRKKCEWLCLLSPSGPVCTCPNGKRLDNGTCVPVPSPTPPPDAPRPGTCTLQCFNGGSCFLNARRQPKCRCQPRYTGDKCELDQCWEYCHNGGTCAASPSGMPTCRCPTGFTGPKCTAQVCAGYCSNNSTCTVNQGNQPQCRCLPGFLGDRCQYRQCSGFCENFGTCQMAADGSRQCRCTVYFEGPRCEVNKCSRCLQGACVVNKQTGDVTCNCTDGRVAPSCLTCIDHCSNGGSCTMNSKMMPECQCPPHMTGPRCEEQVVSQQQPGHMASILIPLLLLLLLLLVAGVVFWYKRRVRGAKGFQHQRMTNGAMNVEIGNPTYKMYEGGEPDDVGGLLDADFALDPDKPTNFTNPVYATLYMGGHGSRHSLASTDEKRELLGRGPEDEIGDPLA
T1 sequence (P56480 47-529): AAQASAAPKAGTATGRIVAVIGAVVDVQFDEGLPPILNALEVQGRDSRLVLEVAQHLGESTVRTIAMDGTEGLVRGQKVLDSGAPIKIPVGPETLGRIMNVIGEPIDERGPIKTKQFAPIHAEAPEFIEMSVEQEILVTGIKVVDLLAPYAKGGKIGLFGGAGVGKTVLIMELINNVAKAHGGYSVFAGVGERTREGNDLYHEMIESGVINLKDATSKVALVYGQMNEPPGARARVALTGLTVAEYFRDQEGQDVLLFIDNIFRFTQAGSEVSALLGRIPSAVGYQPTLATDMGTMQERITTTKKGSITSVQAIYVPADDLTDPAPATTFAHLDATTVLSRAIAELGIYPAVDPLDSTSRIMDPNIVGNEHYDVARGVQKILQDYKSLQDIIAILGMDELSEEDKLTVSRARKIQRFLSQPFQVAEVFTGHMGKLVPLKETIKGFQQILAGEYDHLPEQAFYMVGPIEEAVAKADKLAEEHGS

5′-(_P═S)TCATGAAGCC-3′ (antisense dT*dC*dA*dT*dG*dA*dA*dG*dC*dC; listed as Mus musculus)
uptake of I-PACAP27 delivered by brain perfusion [1]: no statistically significant effect | brain efflux of I-Aβ42 (specificity experiment) [2]: significant increase

5′-GGACTAAATGCTTTCCTTTGTGACAG-3′ (listed as DNA, chemistry not given here; listed as Rattus norvegicus) [SEQ ID NO 16]
P-glycoprotein expression in the brain [3]: reduction of the rat P-glycoprotein expression

Aβ42: 42 amino acid murine amyloid beta (DAEFGHDSGFEVRHQKLVFFAEDVGSNKGAIIGLMVGGVVIA; Amyloid-beta protein 42; UniProt P12023 672-713, looked up)
abluminal-to-luminal transport of I-Aβ42 (saturability) [4]: significantly (p<0.01) inhibited

5′-(_P═S)GAGAAGGTTGTGTGATCTTCA (antisense dG*dA*dG*dA*dA*dG*dG*dT*dT*dG*dT*dG*dT*dG*dA*dT*dC*dT*dT*dC*dA; listed as Mus musculus) [random antisense]
mean fluorescent intensity (LRP-1 immunofluorescence) [5]: 111.14% | time spent investigating the novel object [6]: spent a majority of their time investigating the new object

5′-(_P═S)GGCGCCTTTGTTCGAACCCACATCTTCAGCAAAGAACACCAG-3′ (antisense dG*dG*dC*dG*dC*dC*dT*dT*dT*dG*dT*dT*dC*dG*dA*dA*dC*dC*dC*dA*dC*dA*dT*dC*dT*dT*dC*dA*dG*dC*dA*dA*dA*dG*dA*dA*dC*dA*dC*dC*dA*dG; listed as Mus musculus)
uptake of I-PACAP27 delivered by brain perfusion [1]: no statistically significant effect | brain efflux of I-Aβ42 (specificity experiment) [2]: significant increase
